Reference: US8138148B2, “GDNF derived peptides” (Copenhagen University, priority 2005, dated 2012)

Tests used:
hippocampal neurons [1] = test: Neurite outgrowth assay, co-cultures of hippocampal neurons on control fibroblasts or NCAM-expressing fibroblasts; type: cell-based, rat; conditions: 24 hours
Experimental: Two different versions of the neurite outgrowth assay were used in this study, monocultures and co-cultures.
In monocultures, neurons are grown directly on plastic and the only neuritogenic stimulus is the one presented by the added substance. In co-cultures, neurons are grown on top of a confluent monolayer of fibroblasts expressing NCAM-140 (LBN110) or NCAM-negative control fibroblasts (LVN212). NCAM on the neurons interact with NCAM on LBN110 cells thereby stimulating neurite outgrowth from the neurons. This system thus permits the study of NCAM-NCAM interactions and interactions between NCAM and other molecules.
For all experiments cells were grown in neurobasal medium with supplements as described above in a final volume of 300 μl/well in 8-well LabTek® Permanox Chamber slides or 500 μl/well in 4-well LabTek® Permanox Chamber slides.
(§1) For cocultures, L-cells were seeded in 8-well LabTek® Permanox Chamber slides at a density of 100.000 cells/well, except for transfection experiments where cells were seeded in 4-well LabTek® Permanox Chamber slides at a density of 200.000 cells/well. L-cells were grown for 24 hours in DMEM supplemented with 10% (v/v) FCS, 1% (v/v) glutamax, 100 U/ml penicillin, 100 μg/ml streptomycin, 2.5 μg/ml fungizone, and 567 μg/ml neomycin (G418), followed by washing twice in neurobasal medium with supplements before primary hippocampal neurons were seeded at a density of 7.000 cells/well in 8-well slides or 20.000 cells/well in 4-well slides.
To evaluate the effect peptides on neurite outgrowth, GDNF and the peptides, G1, G2, G3, A1, A2, A3, N1, N2 and N3 were diluted to the appropriate concentrations and added to the neurons approximately 10 minutes after seeding. Medium alone was added to controls, and cells were incubated for 24 hours.
Neurite outgrowth experiments were terminated after the stated time by fixating the cells. To visualize neurons and their neurites, immunostaining of GAP-43 was performed. This staining is specific for neurons. Transfected cells and their neurites should be visible without immunostaining due to the fluorescence emitted by GFP. […] GFP is a cytoplasmic protein, and since thin neurites only contain a small volume of cytoplasm, GFP is only found in small amounts in most neurites. Therefore, a double-staining protocol, where cells were immunostained against GFP and GAP-43, was adopted. This protocol allowed the identification of transfected cells on the basis of GFP-staining in combination with visualization of neurites based on GAP-43-staining.
Without prior removal of the medium 300 μl/well (8-well slides) or 500 μl/well (4-well slides) of a PBS solution containing 0.4 mM CaCl2, 0.05 M sucrose and 8% (v/v) formaldehyde was added to the cultures for 20 minutes. Cells were then washed 10 minutes in PBS followed by washing in PBS with 1% (w/v) BSA for 20 minutes, after which cells were incubated with primary antibodies overnight at 4° C.
Rabbit anti-rat GAP-43 antibodies were diluted 1:1000 for staining of untransfected cells and 1:2000 for staining of transfected cells. Mouse anti-GFP antibodies were diluted 1:1000. Antibodies were diluted in a PBS solution containing 7% (v/v) FCS to block unspecific binding, 50 mM glycine to block formaldehyde used for fixation, 0.2% (v/v) saponin to permeabilize cells, and 0.02% (v/v) NaN3 to preserve antibodies for later use.
The next day cells were washed 10 minutes in PBS followed by washing in PBS with 1% (w/v) BSA for 20 minutes. Cells were then incubated with secondary antibodies diluted in PBS with 1% (w/v) BSA for one hour at room temperature. Goat anti-rabbit IgG antibodies conjugated to Alexa 488 were diluted 1:1000 for untransfected cells and 1:2000 for transfected cells. Goat anti-mouse IgG antibodies conjugated to Alexa 546 were diluted 1:1000. Finally cells were washed 3×7 minutes in PBS and mounted with fluorescent mounting medium. […]

hippocampal neurons [2] = test: Neurite outgrowth of hippocampal neurons transfected with dominant negative FGFR; type: cell-based, rat; conditions: 10 ng/ml GDNF or 3 μg/ml GDNFp1, 18 hours, dnFGFR vs empty vector
Experimental: as §1
Additionally, neurons were transiently transfected with a dominant negative version of the FGFR (dnFGFR), As an alternative to the use of a pharmacological FGFR inhibitor, The dnFGFR plasmid encodes an FGFR that lacks the kinase domain. This mutant receptor inhibits the function of wild type FGFR by engaging in dimers that lack kinase activity. Transfection with an empty vector served as control. Transfection was also done with wtFGFR in order to assess the effect of overexpressing the FGFR.
Transfections were performed with a Nucleofector™ device and a Rat Neuron Nucleofector™ kit (Amaxa Inc., Gaithersburg, Md., USA). This transfection method is based on electroporation in combination with a Nucleofector™ solution containing lipophilic agents. These agents form liposomes containing the plasmid DNA, which then enter the cells during electroporation. The method allows transfection of undividing cells such as neurons. 3 μg of the plasmid of interest was mixed with the Nucleofector™ solution and primary hippocampal neurons were resuspended in the mixture, electroporated in the Nucleofector™ device, and transferred to neurobasal medium with supplements and 5% (v/v) FCS. Cells were then incubated for 2 hours after which they were resuspended in medium without serum, counted, seeded and incubated for 6 hours before GDNF or GDNFp1 was added. Medium alone was added to control and cells were incubated for 18 hours.
All transient transfections in this study included co-transfection with a plasmid encoding EGFP, which allows the identification of transfected cells. To ensure that all EGFP-expressing cells also are transfected with the plasmid of interest, a ratio of […] between the EGFP-encoding plasmid and the plasmid of interest was used (i.e. 0.5 μg EGFP-encoding plasmid was used for each transfection).
Neurite outgrowth experiments were terminated after the stated time by fixating the cells. To visualize neurons and their neurites, immunostaining of GAP-43 was performed. This staining is specific for neurons. Transfected cells and their neurites should be visible without immunostaining due to the fluorescence emitted by GFP. […]

ETTYDKILKNLSRNR (listed as Homo sapiens) [G2, GDNF fragment]
neurite outgrowth, overall effect of treatment, neurons grown on NCAM-expressing fibroblasts (hippocampal neurons [1]; co-culture on NCAM-expressing fibroblasts, GDNF 1-100 ng/ml, peptides 0.1-81 μg/ml): overall significant effect | neurite outgrowth, overall effect of treatment, neurons grown on control fibroblasts (hippocampal neurons [1]; co-culture on control fibroblasts, GDNF 1-100 ng/ml, peptides 0.1-81 μg/ml): overall significant effect | difference between neurite outgrowth on control fibroblasts and on NCAM-expressing fibroblasts across concentrations (one-way ANOVA) (hippocampal neurons [1]; difference per concentration, expressed as percentage of control): mean differences are not all the same | neurite outgrowth mediated by the substance after transfection with dominant negative FGFR, on NCAM-expressing fibroblasts (hippocampal neurons [2]; NCAM-expressing fibroblasts): decreases neurite outgrowth | neurite outgrowth mediated by the substance after transfection with dominant negative FGFR, on control fibroblasts (hippocampal neurons [2]; control fibroblasts): decreases neurite outgrowth
